# Paper PMC9762789, “Chromone-based monoamine oxidase B inhibitor with potential iron-chelating activity for the treatment of Alzheimer’s disease” (Journal of Enzyme Inhibition and Medicinal Chemistry, 2022)
# Read-outs that look alike come from different tables or passages of the source.
# Experiments:
# [1] = iron (III) affinity constants and pFe3+ by spectrophotometric titration; assay type: physicochemical; conditions: for Log β1 / Log β2 / Log β3: DMSO: KCl (0.1 M) = 1:1.5 (v/v); for pFe^3+: calculated from Log β values obtained in DMSO: KCl (0.1 M) = 1:1.5 (v/v)
# Human MAO-A = target: T1, Human MAO-A (Homo sapiens, UniProt P21397); experiment: hMAO-A inhibition assay; assay type: biochemical; conditions: for inhibition at 10 µM: read-out: hMAO-A inhibitory rate at 10 μM, 10 μM (highest concentration tested)
# T1 construct: purchased Sigma-Aldrich
# T1 sequence (P21397 1-527): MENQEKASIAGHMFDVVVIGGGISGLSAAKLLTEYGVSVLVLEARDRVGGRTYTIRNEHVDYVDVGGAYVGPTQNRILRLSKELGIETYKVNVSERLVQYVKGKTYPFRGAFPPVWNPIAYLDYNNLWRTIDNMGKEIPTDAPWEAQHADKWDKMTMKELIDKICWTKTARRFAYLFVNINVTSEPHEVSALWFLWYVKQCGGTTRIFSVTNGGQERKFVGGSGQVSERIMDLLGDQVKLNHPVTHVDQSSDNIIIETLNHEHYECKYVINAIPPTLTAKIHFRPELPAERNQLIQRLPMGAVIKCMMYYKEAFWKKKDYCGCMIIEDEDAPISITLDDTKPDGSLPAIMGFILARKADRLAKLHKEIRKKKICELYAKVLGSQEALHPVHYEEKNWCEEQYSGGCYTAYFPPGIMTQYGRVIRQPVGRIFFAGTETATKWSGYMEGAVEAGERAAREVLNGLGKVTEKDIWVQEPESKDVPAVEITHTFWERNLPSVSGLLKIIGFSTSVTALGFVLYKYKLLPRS
# Procedure: Further, the inhibitory activity of compounds against hMAO-A isoform was tested and calculated as a selectivity index [Selectivity index (SI): IC50 (hMAO-A)/IC50 (hMAO-B)].
# (§1) The reagents and enzymes (Human MAO-B and Human MAO-A) applied in this experiment were purchased from Sigma-Aldrich. According to the manuals, all components (substrate solution and enzyme solution) are diluted and placed aside for use. The detailed process has been mentioned in our early work[34].
# [2] = pKa determination by automated spectrophotometric titration; assay type: physicochemical; conditions: 0.1 M KCl solution
# MAO-B = target: T2, MAO-B (Homo sapiens, UniProt P27338); experiment: hMAO-B inhibition assay; assay type: biochemical; conditions: for inhibition at 0.1 µM: hMAO-B, 100 nM, read-out: Inhibitory rate (%, 100 nM)
# T2 construct: purchased Sigma-Aldrich
# T2 sequence (P27338 1-520): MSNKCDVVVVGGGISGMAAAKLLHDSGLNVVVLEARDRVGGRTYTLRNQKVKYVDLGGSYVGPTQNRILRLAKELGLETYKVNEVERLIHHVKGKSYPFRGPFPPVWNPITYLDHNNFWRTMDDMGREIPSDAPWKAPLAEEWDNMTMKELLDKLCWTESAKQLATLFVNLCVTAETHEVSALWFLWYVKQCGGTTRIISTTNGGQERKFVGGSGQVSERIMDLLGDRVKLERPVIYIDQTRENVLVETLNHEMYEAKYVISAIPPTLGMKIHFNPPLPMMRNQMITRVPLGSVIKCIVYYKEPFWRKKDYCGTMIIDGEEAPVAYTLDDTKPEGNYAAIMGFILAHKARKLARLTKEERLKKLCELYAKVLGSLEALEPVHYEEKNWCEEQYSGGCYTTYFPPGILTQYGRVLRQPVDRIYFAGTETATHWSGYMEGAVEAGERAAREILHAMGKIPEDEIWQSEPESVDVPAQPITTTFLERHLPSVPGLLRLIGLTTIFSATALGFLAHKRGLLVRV
# Procedure: as §1
SMILES,Log β1 [1],Log β2 [1],Log β3 [1],pFe^3+ [1],melting point [°C],inhibition at 10 µM (Human MAO-A) [%],pKa ([2]; read-out: pKa1),pKa ([2]; read-out: pKa2),IC50 (MAO-B) [µM],inhibition at 0.1 µM (MAO-B) [%],SI: hMAO-B selectivity index = IC50 (hMAO-A)/IC50 (hMAO-B) (MAO-B),IC50 (Human MAO-A) [µM]
"Cc1c(O)c(=O)ccn1CCNC(=O)c1coc2cc(OCc3cccc(Cl)c3)ccc2c1=O [Compound 15f, 7-((3-Chlorobenzyl)oxy)-N-(2–(3-hydroxy-2-methyl-4-oxopyridin-1(4H)-yl)ethyl)-4-oxo-4H-chromene-3-carboxamide]",13.79,25.03,33.91,18.09,230 to 232,< 20,3.35,9.52,0.1295 ± 0.0008,41.2 ± 2.8,–,–
"Cc1c(O)c(=O)ccn1CCNC(=O)c1coc2cc(OCc3ccc(F)cc3)ccc2c1=O [Compound 15e, 7-((4-Fluorobenzyl)oxy)-N-(2–(3-hydroxy-2-methyl-4-oxopyridin-1(4H)-yl)ethyl)-4-oxo-4H-chromene-3-carboxamide]",13.24,24.65,34.50,18.52,246 to 248,< 20,2.89,9.57,0.1064 ± 0.0002,42.4 ± 2.1,>94,–
"Cc1ccc2occ(CNCCn3ccc(=O)c(O)c3C)c(=O)c2c1 [Compound 17c, 3-Hydroxy-2-methyl-1–(2-(((6-methyl-4-oxo-4H-chromen-3-yl)methyl)amino)ethyl)pyridin-4(1H)-one]",13.31,25.00,34.07,17.55,259 to 261,< 20,2.75,9.76,0.0863 ± 0.0007,44.23 ± 0.1,>116,–
"Cc1c(O)c(=O)ccn1CCNC(=O)c1coc2ccccc2c1=O [Compound 8a, N-(2–(3-hydroxy-2-methyl-4-oxopyridin-1(4H)-yl)ethyl)-4-oxo-4H-chromene-3-carboxamide]",13.67,25.22,34.95,18.68,268 to 270,< 20,3.29,9.67,0.112 ± 0.0013,42.2 ± 3.7,>89,–
"COc1ccc2occ(CNCCn3ccc(=O)c(O)c3C)c(=O)c2c1 [Compound 17e, 3-Hydroxy-1–(2-(((6-methoxy-4-oxo-4H-chromen-3-yl)methyl)amino)ethyl)-2-methylpyridin-4(1H)-one]",13.32,25.08,34.89,18.12,267 to 269,< 20,2.76,9.83,0.0887 ± 0.0053,46.4 ± 1.3,>112,–
"Cc1ccc2c(=O)c(CNCCn3ccc(=O)c(O)c3C)coc2c1 [Compound 17b, 3-Hydroxy-2-methyl-1–(2-(((7-methyl-4-oxo-4H-chromen-3-yl)methyl)amino)ethyl)pyridin-4(1H)-one]",13.58,25.38,35.34,18.61,251 to 253,< 20,2.95,9.82,0.08278 ± 0.0007,49.5 ± 0.3,>120,–
"COc1ccc2c(=O)c(C(=O)NCCn3ccc(=O)c(O)c3C)coc2c1 [Compound 8d, N-(2–(3-hydroxy-2-methyl-4-oxopyridin-1(4H)-yl)ethyl)-7-methoxy-4-oxo-4H-chromene-3-carboxamide]",13.82,25.31,34.23,18.18,248 to 250,< 20,3.2,9.6,0.107 ± 0.0056,41.9 ± 1.4,>93,–
"Cc1cccc(COc2ccc3c(=O)c(CNCCn4ccc(=O)c(O)c4C)coc3c2)c1 [Compound 17g, 3-Hydroxy-2-methyl-1–(2-(((7-((3-methylbenzyl)oxy)-4-oxo-4H-chromen-3-yl)methyl)amino)ethyl)pyridin-4(1H)-one]",13.02,24.75,33.78,17.66,211 to 213,–,2.68,9.62,0.078 ± 0.0043,55.8 ± 2.7,21.4,1.666 ± 0.0057
"Cc1ccc2occ(C(=O)NCCn3ccc(=O)c(O)c3C)c(=O)c2c1 [Compound 8c, N-(2–(3-hydroxy-2-methyl-4-oxopyridin-1(4H)-yl)ethyl)-6-methyl-4-oxo-4H-chromene-3-carboxamide]",13.86,25.07,33.48,17.19,265 to 267,< 20,3.26,9.69,0.112 ± 0.0057,42.1 ± 0.8,>89,–
"Cc1c(O)c(=O)ccn1CCNCc1coc2cc(OCc3ccccc3)ccc2c1=O [Compound 17f, 1–(2-(((7-(Benzyloxy)-4-oxo-4H-chromen-3-yl)methyl)amino)ethyl)-3-hydroxy-2-methylpyridin-4(1H)-one]",13.20,24.70,33.77,17.45,169 to 171,–,2.73,9.69,0.0764 ± 0.0038,49 ± 0.6,10.4,0.795 ± 0.0007
"Cc1c(O)c(=O)ccn1CCNCc1coc2cc(OCc3ccc(F)cc3)ccc2c1=O [Compound 17j, 1–(2-(((7-((4-Fluorobenzyl)oxy)-4-oxo-4H-chromen-3-yl)methyl)amino)ethyl)-3-hydroxy-2-methylpyridin-4(1H)-one]",13.13,24.78,33.73,17.89,218 to 220,< 20,2.76,9.53,0.102 ± 0.0032,46 ± 0.7,>99,–
"Cc1c(O)c(=O)ccn1CCNCc1coc2cc(OCc3ccc(Cl)cc3)ccc2c1=O [Compound 17l, 1–(2-(((7-((4-Chlorobenzyl)oxy)-4-oxo-4H-chromen-3-yl)methyl)amino)ethyl)-3-hydroxy-2-methylpyridin-4(1H)-one]",13.02,24.99,34.39,18.70,189 to 191,–,2.61,9.47,0.0756 ± 0.0031,61.4 ± 3.4,17.4,1.31 ± 0.0134
"Cc1c(O)c(=O)ccn1CCNC(=O)c1coc2cc(OCc3cccc(F)c3)ccc2c1=O [Compound 15d, 7-((3-Fluorobenzyl)oxy)-N-(2–(3-hydroxy-2-methyl-4-oxopyridin-1(4H)-yl)ethyl)-4-oxo-4H-chromene-3-carboxamide]",13.50,25.31,34.85,19.01,237 to 239,–,3.36,9.52,–,38.5 ± 1.4,–,–
